Patent US11746087B1, “C4-carboxylic acid-substituted tryptamine derivatives and methods of using” (priority 2022, dated 2023)
Several values for one entry are separate records, joined by “and”; a condition that tells them apart may be missing. Equal entries are not always repeated. Where two headings read alike, the source gives them in different places.

Columns and labels:
[1] = biological target: CNR1 (Homo sapiens, UniProt P21554); assay: EFC-based cAMP secondary messenger assay, agonist mode; type: cell-based
CNR1, sequence (P21554 whole entry): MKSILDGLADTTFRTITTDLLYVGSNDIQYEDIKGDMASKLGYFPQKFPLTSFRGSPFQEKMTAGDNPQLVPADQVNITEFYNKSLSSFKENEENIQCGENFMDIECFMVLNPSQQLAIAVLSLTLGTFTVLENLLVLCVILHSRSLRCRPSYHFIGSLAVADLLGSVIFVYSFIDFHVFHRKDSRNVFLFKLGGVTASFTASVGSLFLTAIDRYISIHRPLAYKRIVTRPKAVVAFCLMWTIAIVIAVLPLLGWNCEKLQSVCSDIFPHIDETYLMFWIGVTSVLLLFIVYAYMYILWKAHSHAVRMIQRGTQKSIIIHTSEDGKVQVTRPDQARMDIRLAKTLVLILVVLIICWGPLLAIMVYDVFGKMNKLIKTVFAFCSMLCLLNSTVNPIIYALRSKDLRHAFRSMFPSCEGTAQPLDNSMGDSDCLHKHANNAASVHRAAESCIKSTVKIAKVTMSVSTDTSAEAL

[2] = biological target: SERT (Homo sapiens, UniProt P31645); assay: cell-based; settings: transporter, BL (blocker)
SERT, sequence (P31645 whole entry): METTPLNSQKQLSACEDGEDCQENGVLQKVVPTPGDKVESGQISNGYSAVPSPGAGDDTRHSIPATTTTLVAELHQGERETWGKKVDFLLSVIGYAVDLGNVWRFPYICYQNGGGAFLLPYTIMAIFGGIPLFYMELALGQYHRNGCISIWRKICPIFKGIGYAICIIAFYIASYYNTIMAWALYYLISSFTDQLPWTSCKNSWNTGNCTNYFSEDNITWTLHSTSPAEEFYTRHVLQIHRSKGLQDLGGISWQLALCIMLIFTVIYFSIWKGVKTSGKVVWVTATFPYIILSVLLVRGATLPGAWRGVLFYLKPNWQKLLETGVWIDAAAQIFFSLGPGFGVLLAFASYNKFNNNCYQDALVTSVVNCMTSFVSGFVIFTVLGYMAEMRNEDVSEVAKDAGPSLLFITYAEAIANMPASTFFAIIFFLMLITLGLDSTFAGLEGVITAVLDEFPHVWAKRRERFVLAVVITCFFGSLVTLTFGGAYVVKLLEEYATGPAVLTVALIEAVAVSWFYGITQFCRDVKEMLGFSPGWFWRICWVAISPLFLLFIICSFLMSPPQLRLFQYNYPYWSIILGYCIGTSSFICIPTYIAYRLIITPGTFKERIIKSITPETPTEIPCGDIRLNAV

[3] = biological target: DRD2S (Homo sapiens, UniProt P14416); assay: EFC-based cAMP secondary messenger assay, antagonist mode; type: cell-based
DRD2S, sequence (P14416 1-414 isoform P14416-2): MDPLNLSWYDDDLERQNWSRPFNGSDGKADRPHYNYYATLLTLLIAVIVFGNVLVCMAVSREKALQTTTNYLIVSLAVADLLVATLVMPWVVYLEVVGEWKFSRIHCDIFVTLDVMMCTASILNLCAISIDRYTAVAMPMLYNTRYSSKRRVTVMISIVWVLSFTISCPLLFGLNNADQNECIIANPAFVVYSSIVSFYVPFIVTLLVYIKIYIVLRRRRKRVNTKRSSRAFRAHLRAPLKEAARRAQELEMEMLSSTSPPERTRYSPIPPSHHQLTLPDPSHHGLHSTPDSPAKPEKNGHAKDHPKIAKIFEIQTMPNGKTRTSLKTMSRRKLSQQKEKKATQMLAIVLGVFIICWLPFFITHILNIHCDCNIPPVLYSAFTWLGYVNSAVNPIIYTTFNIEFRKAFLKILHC

[4] = biological target: T1, ADRA1A (Homo sapiens, UniProt P35348); assay: Calcium secondary messenger assay, antagonist mode; type: cell-based
T1 sequence (P35348 1-466): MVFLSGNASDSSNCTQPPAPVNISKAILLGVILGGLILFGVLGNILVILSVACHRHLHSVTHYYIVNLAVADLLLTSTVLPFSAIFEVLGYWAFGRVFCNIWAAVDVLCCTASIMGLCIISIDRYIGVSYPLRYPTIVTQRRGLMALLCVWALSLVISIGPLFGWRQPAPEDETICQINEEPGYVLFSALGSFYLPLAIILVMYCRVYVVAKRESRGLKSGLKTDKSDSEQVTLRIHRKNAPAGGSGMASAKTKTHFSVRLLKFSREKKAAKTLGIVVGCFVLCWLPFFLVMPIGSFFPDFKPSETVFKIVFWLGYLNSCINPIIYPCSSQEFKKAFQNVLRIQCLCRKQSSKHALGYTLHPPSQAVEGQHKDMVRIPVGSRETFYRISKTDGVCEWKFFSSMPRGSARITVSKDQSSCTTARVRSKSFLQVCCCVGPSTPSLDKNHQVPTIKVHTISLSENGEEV

[5] = biological target: OPRD1 (Homo sapiens, UniProt P41143); assay: EFC-based cAMP secondary messenger assay, agonist mode; type: cell-based
OPRD1, sequence (P41143 whole entry): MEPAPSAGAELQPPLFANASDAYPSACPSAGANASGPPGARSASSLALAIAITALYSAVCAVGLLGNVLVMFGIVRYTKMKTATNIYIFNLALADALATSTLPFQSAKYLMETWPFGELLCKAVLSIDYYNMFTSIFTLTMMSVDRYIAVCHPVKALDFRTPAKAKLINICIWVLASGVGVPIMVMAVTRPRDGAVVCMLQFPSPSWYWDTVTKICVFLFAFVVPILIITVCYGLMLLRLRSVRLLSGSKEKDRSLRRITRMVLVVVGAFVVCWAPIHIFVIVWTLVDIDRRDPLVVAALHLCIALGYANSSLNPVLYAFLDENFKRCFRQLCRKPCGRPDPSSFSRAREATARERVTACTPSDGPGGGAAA

[6] = Mouse PK study (IV and PO), plasma parent compound and psilocin by LC-MS/MS; type: in vivo; settings: for Plasma concentration of psilocin: BLQ = below 0.5 ng/mL; for F: C(XX); for concentration at 5 min / concentration at 0.25 h / concentration at 0.5 h / concentration at 1 h / concentration at 2 h: male, C57Bl/6, mouse, plasma, intravenous, read-out: Plasma concentration of C(XX)
Source text: Briefly, the procedure was as follows. […] 19, 2022.

[7] = 10 mg/kg oral C(XX), individual animals
[8] = C(XX) in plasma, 1 mg/kg i.v. C(XX), Mean ± SD
[9] = C(XX) in plasma, 1 mg/kg i.v. C(XX), per animal, 1 mg/kg
[10] = C(XX) in plasma, 1 mg/kg oral C(XX), per animal, 1 mg/kg
[11] = C(XX) in plasma, 3 mg/kg oral C(XX), Mean ± SD
[12] = C(XX) in plasma, 3 mg/kg oral C(XX), per animal, 3 mg/kg
[13] = 1 mg/kg, 1 mg/kg i.v. C(XX), Mean ± SD
[14] = 1 mg/kg, 1 mg/kg i.v. C(XX), per animal, BLQ <0.25 ng/mL

CN(C)CCc1c[nH]c2cccc(OC(=O)c3cccc4c3OCCO4)c12 [C(XX)]
EC50 [1]: > 100 µM
IC50 [2]: 14.7 µM
IC50 [3]: > 100 µM
IC50 [4]: 5.21 µM
EC50 [5]: > 100 µM
Plasma concentration of C(XX) ([6]; 1 mg/kg i.v. C(XX), 6 h, per animal, BLQ <0.25 ng/mL): BLQ
Plasma concentration of psilocin ([6]; 1 mg/kg i.v. C(XX), 8 h, individual animals): BLQ
Plasma concentration of C(XX) ([6]; 1 mg/kg i.v. C(XX), 8 h, per animal, BLQ <0.25 ng/mL): BLQ and No (2×)
AUC0-tlast/Dose of C(XX) in plasma ([6]; 1 mg/kg i.v. C(XX), mean ± SD): 52.8 ± 8.30 kg·ng·h/mL/mg
Plasma concentration of C(XX) ([6]; 1 mg/kg oral C(XX), 2 h, per animal, BLQ <0.25 ng/mL): BLQ
Plasma concentration of C(XX) ([6]; 1 mg/kg oral C(XX), 4 h, per animal, BLQ <0.25 ng/mL): BLQ
Plasma concentration of C(XX) ([6]; 1 mg/kg oral C(XX), 6 h, per animal, BLQ <0.25 ng/mL): No Peak (2×) and BLQ
Plasma concentration of C(XX) ([6]; 1 mg/kg oral C(XX), 8 h, per animal, BLQ <0.25 ng/mL): No Peak (2×) and BLQ
Plasma concentration of psilocin ([6]; 1 mg/kg oral C(XX), 24 h, individual animals): BLQ
Plasma concentration of C(XX) ([6]; 1 mg/kg oral C(XX), 24 h, per animal, BLQ <0.25 ng/mL): No Peak
Cmax/Dose of C(XX) in plasma ([6]; 1 mg/kg p.o. C(XX), mean ± SD): 0.620 kg·ng/mL/mg
Plasma concentration of C(XX) ([6]; 3 mg/kg oral C(XX), 4 h, per animal, BLQ <0.25 ng/mL): No Peak (2×) and BLQ
Plasma concentration of C(XX) ([6]; 3 mg/kg oral C(XX), 6 h, per animal, BLQ <0.25 ng/mL): No Peak and BLQ (2×)
Plasma concentration of C(XX) ([6]; 3 mg/kg oral C(XX), 8 h, per animal, BLQ <0.25 ng/mL): No Peak and BLQ (2×)
Plasma concentration of psilocin ([6]; 3 mg/kg oral C(XX), 24 h, individual animals): BLQ
Plasma concentration of C(XX) ([6]; 3 mg/kg oral C(XX), 24 h, per animal, BLQ <0.25 ng/mL): No Peak
AUC0-tlast/Dose of C(XX) in plasma ([6]; 3 mg/kg p.o. C(XX), mean ± SD): 0.458 kg·ng·h/mL/mg
Cmax/Dose of C(XX) in plasma ([6]; 3 mg/kg p.o. C(XX), mean ± SD): 0.571 kg·ng/mL/mg
F(%) of C(XX) ([6]; 3 mg/kg p.o. C(XX), mean ± SD): 0.953%
Plasma concentration of C(XX) ([6]; 10 mg/kg oral C(XX), 4 h, per animal, BLQ <0.25 ng/mL): BLQ
Plasma concentration of C(XX) ([6]; 10 mg/kg oral C(XX), 6 h, per animal, BLQ <0.25 ng/mL): BLQ
Plasma concentration of C(XX) ([6]; 10 mg/kg oral C(XX), 8 h, per animal, BLQ <0.25 ng/mL): BLQ
Plasma concentration of psilocin ([6]; 10 mg/kg oral C(XX), 24 h, individual animals): BLQ
Plasma concentration of C(XX) ([6]; 10 mg/kg oral C(XX), 24 h, per animal, BLQ <0.25 ng/mL): No Peak
AUC0-tlast/Dose of C(XX) in plasma [6, 7]: 0.565 kg·ng·h/mL/mg and 0.499 kg·ng·h/mL/mg and 0.916 kg·ng·h/mL/mg
Cmax of C(XX) in plasma [6, 7]: 2.99 ng/mL and 9.12 ng/mL and 10.3 ng/mL
Cmax/Dose of C(XX) in plasma [6, 7]: 0.299 kg·ng/mL/mg and 0.912 kg·ng/mL/mg and 1.03 kg·ng/mL/mg
MRT0-inf of C(XX) in plasma [6, 7]: 0.800 h and 3.56 h
F(%) of C(XX) ([6]; 10 mg/kg oral C(XX), individual animals, AUC0-tlast used, might be under-estimated): 1.07% and 0.941% and 1.73%
Apparent t1/2 of C(XX) in plasma ([6]; 10 mg/kg oral C(XX), individual animals, M60 estimate may not be accurate): 0.534 h and 5.66 h
AUC0-tlast/Dose of C(XX) in plasma ([6]; 10 mg/kg oral C(XX), mean ± SD): 0.660 ± 0.224 kg·ng·h/mL/mg
Cmax/Dose of C(XX) in plasma ([6]; 10 mg/kg oral C(XX), mean ± SD): 0.747 ± 0.392 kg·ng/mL/mg
F(%) of C(XX) ([6]; 10 mg/kg oral C(XX), mean ± SD, AUC0-tlast used): 1.24 ± 0.423%
AUC0-inf/Dose [6, 8]: 53.0 ± 8.26 kg·ng·h/mL/mg
AUC0-tlast/Dose [6, 8]: 52.8 ± 8.30 kg·ng·h/mL/mg
AUC0-inf/Dose [6, 9]: 48.3 kg·ng·h/mL/mg and 62.5 kg·ng·h/mL/mg and 48.1 kg·ng·h/mL/mg
AUC0-tlast [6, 9]: 48.0 ng·h/mL
AUC0-tlast/Dose [6, 9]: 48.1 kg·ng·h/mL/mg and 62.4 kg·ng·h/mL/mg and 48.0 kg·ng·h/mL/mg
AUC(0-inf) [6, 9]: 48.1 ng·h/mL
Apparent t1/2 [6, 9]: 32.2 min
C0 [6, 9]: 139 ng/mL
CL [6, 9]: 346.28 mL/min/kg
Vss [6, 9]: 8913 mL/kg
Cmax/Dose ([6]; C(XX) in plasma, 1 mg/kg oral C(XX), Mean ± SD): 0.620 ± 0.0996 kg·ng/mL/mg
Cmax/Dose [6, 10]: 0.702 kg·ng/mL/mg and 0.509 kg·ng/mL/mg and 0.648 kg·ng/mL/mg
Tmax [6, 10]: 30 min
AUC0-tlast/Dose [6, 11]: 0.458 ± 0.0457 kg·ng·h/mL/mg
Cmax/Dose [6, 11]: 0.571 ± 0.0734 kg·ng/mL/mg
Tmax ([6]; C(XX) in plasma, 3 mg/kg oral C(XX), per animal): 15 min
AUC0-inf/Dose [6, 12]: 0.510 kg·ng·h/mL/mg
AUC0-tlast [6, 12]: 1.42 ng·h/mL
AUC0-tlast/Dose [6, 12]: 0.406 kg·ng·h/mL/mg and 0.494 kg·ng·h/mL/mg and 0.474 kg·ng·h/mL/mg
Cmax/Dose [6, 12]: 0.497 kg·ng/mL/mg and 0.573 kg·ng/mL/mg and 0.643 kg·ng/mL/mg
MRT0-inf [6, 12]: 49.4 min
F ([6]; 3 mg/kg oral C(XX), Mean ± SD): 0.953 ± 0.132%
F ([6]; 3 mg/kg oral C(XX), per animal, 3 mg/kg): 0.816% and 1.08%
concentration at 5 min [6, 13]: 122 ± 26.1 ng/mL
concentration at 5 min [6, 14]: 109 ng/mL
concentration at 0.25 h [6, 13]: 70.5 ± 12.7 ng/mL
concentration at 0.25 h [6, 14]: 66.5 ng/mL
concentration at 0.5 h [6, 13]: 32 ± 5.9 ng/mL
concentration at 0.5 h [6, 14]: 26.1 ng/mL
concentration at 1 h [6, 13]: 8.43 ± 0.438 ng/mL
concentration at 1 h [6, 14]: 8.93 ng/mL
concentration at 2 h ([6]; 1 mg/kg, 1 mg/kg i.v. C(XX), 2 h, Mean ± SD): 1.05 ± 0.0871 ng/mL
concentration at 2 h ([6]; 1 mg/kg, 1 mg/kg i.v. C(XX), 2 h, per animal, BLQ <0.25 ng/mL): 0.968 ng/mL
